According to the OPERA property sets (Mansouri et al. 2018):
Where a SMILES comes first, the peptide text is derived from it. [ ]: non-standard residue; d: D form. ξ: configuration not given here. ξW = NC(Cc1c[nH]c2ccccc12)C(=O)O; ξY = NC(Cc1ccc(O)cc1)C(=O)O

Work on `CC(=O)OCC1=C(C(=O)O)N2C(=O)[C@@H](NC(=O)Cc3ccccc3)[C@H]2SC1` yielded a logP of 0.2.

`Nc1nc(N)c2c(N)cccc2n1` gave a logP of 0.3.

In the case of `O=C(c1ccccc1)c1ccnnc1`, the logP is reported as 1.09.

With `FC(F)(F)c1cccc(CNc2[nH]cnc3ncnc2-3)c1` the logP was 3.08.

`Cc1cccc(N2CC(N3CCOCC3)=CC2=O)c1` showed a logP of 1.5.

For `CC(C)NC(=NC#N)NS(=O)(=O)c1cnccc1Nc1ccc(Cl)c(C(F)(F)F)c1`, the logP was 3.27.

Work on `O=c1cc(CI)occ1O` yielded a logP of 0.67.

For `Cc1cc2c(ccc3cc(C)c(=O)oc32)o1`, the logP was 2.97.

Compound `Cc1ccc(CO)c(C=NNC(=O)c2ccc(O)cc2)c1O` has a logP of 2.56.

Compound `COCc1[nH]c(-c2ccc(OCC(O)CNCCc3ccc(OC)c(OC)c3)cc2)nc1C` (stereo not drawn) has a logP of 2.8.

`CCCC(=NOCC)C1=C(O)CC2(CCCCC2C)OC1=O` (stereo not drawn) gave a logP of 3.9.

Compound `c1ccc2c(c1)OCC(CCc1ncc[nH]1)O2` (stereo not drawn) has a logP of 1.99.

`COc1cc(NS(C)(=O)=O)ccc1-c1cn2cccnc2n1` showed a logP of 0.72.

In the case of `CN1CC(O)N(C(=O)NC2CCCCCC2)C1=O` (stereo not drawn), the logP is reported as 2.29.

With `COc1cc(OC)c(Cl)cc1N` the logP was 1.45.

For `NC(Cc1c[nH]c2ccccc12)C(=O)NCC(=O)NCC(=O)O` (stereo not drawn) (H-[ξW]-Gly-Gly-OH), the logP was -2.72.

Compound `CC(NC(=O)C(N)Cc1c[nH]c2ccccc12)C(=O)NC(C(N)=O)C(C)C` (stereo not drawn) (H-Trp-Ala-Val-NH2; configuration not given here) has a logP of 0.4.

In the case of `CC(C)NC(CO)C(O)c1ccccc1` (stereo not drawn), the logP is reported as 1.19.

`Cc1nccc2c1[nH]c1cc(O)ccc12` showed a logP of 2.84.

`CCCOCCCNc1ncnc2c1ncn2C1OC(CO)C(O)C1O` (stereo not drawn) gave a logP of 0.81.

In the case of `O=C1C=C(N2CCCC2)C(=O)N1c1ccc(F)cc1`, the logP is reported as 2.3.

With `O=S(=O)(NC(=S)N1CCCCC1)c1cnccc1NC1CCCCCCC1` the logP was 4.5.

Compound `CCCOc1cccc(NC(=O)OCCN2CCCCC2)c1` has a logP of 4.48.

Work on `CCCNCc1ccc(C)cc1` yielded a logP of 2.96.

In the case of `Cc1nc2c3c(c(C(=O)NC4CC4)cn2c1C)CCC(c1ccccc1)O3` (stereo not drawn), the logP is reported as 4.

In the case of `c1cc2ccc1CCc1ccc(cc1)CC2`, the logP is reported as 4.33.

With `O=C(Nc1ccccc1)c1ccccc1I` the logP was 2.85.

In the case of `Cc1c[nH]c(Cc2ccc(OCC(O)CNC(C)(C)C)cc2)n1` (stereo not drawn), the logP is reported as 1.4.

Compound `Cc1oc2ccc3ccc(=O)oc3c2c1C` has a logP of 2.97.

With `CCC(C)C(NC(=O)C(C)NC(=O)C(CC(C)C)NC(=O)C(N)CO)C(=O)NC(C(=O)O)C(C)C` (stereo not drawn) (H-SLAIV-OH; configuration not given here) the logP was -1.94.

For `CCOC(=O)c1cccc2c1CC(c1ccc(OC)cc1)C(OC(C)=O)C(=O)N2CCN(C)C` (stereo not drawn), the logP was 4.2.

`Cc1nc2ccccc2c(=O)n1CC(=O)N1CCCCC1` gave a logP of 1.27.

In the case of `CNC(=S)NN=C(c1cccc([N+](=O)[O-])c1)c1ccccn1`, the logP is reported as 2.14.

`COC(=O)C(=Cc1ccccc1)S(=O)(=O)c1ccc([N+](=O)[O-])cc1` gave a logP of 2.9.

With `Cc1cccc(CNc2[nH]cnc3ncnc2-3)c1` the logP was 2.62.

For `CC(C)CC(NC(=O)C(N)Cc1ccccc1)C(=O)O` (stereo not drawn) (H-Phe-Leu-OH; configuration not given here), the logP was -1.17.

Work on `C=CC(=O)OCCCCCC` yielded a logP of 3.33.

`Oc1ccccc1CNc1ncnc2nc[nH]c12` showed a logP of 2.05.

With `COc1cc(OC)nc(Oc2cccc(Oc3ccccc3)c2C(=O)O)n1` the logP was 3.43.

Work on `O=C(O)Cc1nn(Cc2nc3cc(C(F)(F)F)ccc3s2)c(=O)c2ccccc12` yielded a logP of 2.37.

Compound `CCOC(=O)c1cccc(N(C)C)c1` has a logP of 3.19.

`O=C1CN=C(c2ccccc2)c2ccc(C(F)(F)F)cc2N1` gave a logP of 3.18.

`CCCc1nc(NC)nc(N2CCOCC2)n1` gave a logP of 2.15.

For `CCCCCNC(=O)N1C(=O)N(C)CC1O` (stereo not drawn), the logP was 1.75.

Work on `C=CC(=O)Oc1ccccc1` yielded a logP of 1.94.

In the case of `CCCCCCCCCCCCNCCO`, the logP is reported as 4.51.

`Cc1nc2c3c(c(C(=O)N4CC(O)C4)cn2c1C)CCC(c1ccccc1)O3` (stereo not drawn) showed a logP of 3.1.

`COC1CC(OC2C(O)CC(OC3CCC4(C)C(CCC5C4CC(O)C4(C)C(C6=CC(=O)OC6)CCC54O)C3)OC2C)OC(C)C1OC1CC(O)C(O)C(C)O1` (stereo not drawn) gave a logP of 1.8.

`CON(C)C(=O)Nc1ccc(C2CCCCC2)cc1` showed a logP of 4.08.

`O=C1N=C(N2CCOCC2)CN1Cc1cccc(Cl)c1` showed a logP of 1.3.

Work on `COC1(OC)C(N2CCOCC2)=NC(=O)N1c1ccc(Cl)cc1` yielded a logP of 1.7.

Compound `CCCCCNCc1ccc(C)cc1` has a logP of 4.26.

`O=C(Cc1ccccc1)OC1Cc2c(O)cc(O)cc2OC1c1ccc(O)c(O)c1` (stereo not drawn) gave a logP of 3.09.

With `CCOC(=O)C1=C(C)NC(C)=C(C(=O)OC)C1c1cccc2c1OCCO2` (stereo not drawn) the logP was 3.57.

`CC(=NNC(=O)c1ccc(N)cc1)c1cnccn1` showed a logP of 1.3.

For `O=C(O)C1CSC(c2cc(O)ccc2O)=N1` (stereo not drawn), the logP was 0.9.

With `O=C1C(O)N=C(c2ccccc2)c2cc(Cl)ccc2N1CCO` (stereo not drawn) the logP was 1.53.

Work on `CN(C)C1=NC(=O)N(c2ccc(Cl)cc2)C1` yielded a logP of 1.6.

With `Nc1nnnn1-c1cccc2ccccc12` the logP was 1.72.

For `CCNc1ncnc2c1ncn2C1OC(CO)C(O)C1O` (stereo not drawn), the logP was 0.01.

In the case of `ClCC1(C(Cl)Cl)C2CC(Cl)C1(C(Cl)Cl)CC2(Cl)Cl` (stereo not drawn), the logP is reported as 5.75.

In the case of `CCOC(=O)c1ccc(N=NN(C)C(=O)OCOC(C)=O)cc1`, the logP is reported as 3.44.

Compound `Nc1nnnn1-c1ccc2ccccc2c1` has a logP of 2.08.

For `CC(C)NC(=NC#N)NS(=O)(=O)c1cnccc1Nc1cccc(I)c1`, the logP was 2.51.

In the case of `CCN(CC)c1ccc(-n2c(C(F)(F)F)nn(C)c2=S)cc1`, the logP is reported as 3.79.

`O=c1cc(CBr)occ1O` showed a logP of 0.61.

With `COc1ccc([N+](=O)[O-])c(C)c1` the logP was 2.32.

With `COc1ccc(Nc2nc(O)nc(NC(C)C)n2)cc1OC` the logP was 3.49.

With `CC(C)C(N)C(=O)NC(C(=O)O)C(C)C` (stereo not drawn) (H-Val-Val-OH; configuration not given here) the logP was -2.82.

`CC1(C)CCC(C(F)(F)F)=[N+]1[O-]` gave a logP of 0.2.

Compound `COC(=O)C(=Cc1cnc(SC(C)=O)n1C)C(=O)OC` has a logP of -0.43.

`CCN(CCO)CCCOc1cc2ncnc(Nc3cc(CC(=O)Nc4cccc(F)c4F)[nH]n3)c2cc1OC` gave a logP of 3.5.

In the case of `CC(C)CCCNc1[nH]cnc2ncnc1-2`, the logP is reported as 3.06.

In the case of `COc1cc(OS(C)(=O)=O)ccc1-c1cn2cccnc2n1`, the logP is reported as 1.05.

`COc1ccc(CCNCC(O)COc2ccc(-c3nc(C(C)(C)C)c[nH]3)cc2)cc1OC` (stereo not drawn) gave a logP of 4.09.

Work on `C#CCN(N=O)C(=O)NCCCCC(NC(C)=O)C(=O)NCc1ccccc1` (stereo not drawn) yielded a logP of 1.64.

Work on `COC(=O)C(C)NP(=O)(OCC1C=CC(n2cc(C)c(=O)[nH]c2=O)O1)Oc1cccc(Cl)c1` (stereo not drawn) yielded a logP of 1.42.

Work on `Cc1cccc(C)c1Cc1cn[nH]c1` yielded a logP of 3.6.

Work on `Nc1ccn(C2CC(CO)C(O)C2O)c(=O)n1` (stereo not drawn) yielded a logP of -2.41.

`Cc1nc2c3c(c(C(=O)N(C)C)cn2c1C)CCC(c1cccs1)O3` (stereo not drawn) showed a logP of 2.8.

`CNc1ccc(-c2cn3cc(SC)ccc3n2)cc1` showed a logP of 3.9.

`O=c1[nH]c2cc(Cl)ccc2c(O)c1-c1cccc(Cc2ccc(CCN3CCOCC3)cc2)c1` showed a logP of 5.2.

Compound `CCC(C)C(NC(=O)CNC(=O)C(C)NC(=O)CNC(=O)C(N)Cc1ccccc1)C(=O)O` (stereo not drawn) (H-FGAGI-OH; configuration not given here) has a logP of -1.87.

`COC1C(O)CC(=O)OC(C)CC=CC=CC(=O)C(C)CC(CC=O)C1OC1OC(C)C(OC2CC(C)(O)C(OC(=O)CC(C)C)C(C)O2)C(N(C)C)C1O` (stereo not drawn) gave a logP of 1.86.

Compound `CSc1cccc2nc(N)nc(N)c12` has a logP of 1.81.

Compound `CC(C)NC(=NC#N)NS(=O)(=O)c1cnccc1Nc1cccc(C(F)(F)F)c1` has a logP of 2.54.

Compound `CC(=O)c1cccc(CNc2[nH]cnc3ncnc2-3)c1` has a logP of 1.73.

`COCCOC(=O)C1=C(C)NC(C)=C(C(=O)OCCOC)C1c1cccc2c1OCO2` gave a logP of 2.93.

For `COC(=O)c1[nH]cc(-c2ccc(Br)cc2)c1N1CCOCC1`, the logP was 3.8.

Compound `COc1cc2c(c(OC)c1OC)-c1ccc(O)c(=O)cc1C(N)CC2` (stereo not drawn) has a logP of 0.74.

`Fc1cncnc1` showed a logP of -0.03.

Work on `CC(C)(C)SSc1ncc[nH]1` yielded a logP of 2.56.

For `NC(=O)Cc1ccc(O)cc1`, the logP was -0.09.

`CCCCCCCCNC1=NS(=O)N=C1NCCSCc1ccc(CN(C)C)o1` (stereo not drawn) showed a logP of 4.47.

With `Nc1nnnn1-c1ccc(Br)cc1` the logP was 1.63.

For `CNC=C1c2cccc(O)c2C(=O)c2c(O)cccc21`, the logP was 3.55.

With `CNC(=O)Cn1cccc(O)c1=O` the logP was -1.15.

Work on `CCCOC(=O)c1cnc2n(c1=O)C(C)CCC2` (stereo not drawn) yielded a logP of 1.14.

Work on `CC1CCC(C)N1C(=O)Nc1ccccc1` (stereo not drawn) yielded a logP of 2.33.

`CCCCC(O)C(CCCCOc1cccc2ccccc12)n1cncn1` (stereo not drawn) gave a logP of 4.31.

Work on `O=C(Cc1ccccc1)Nc1[nH]cnc2ncnc1-2` yielded a logP of 1.19.

With `COC(=O)C(C)=CC1C(C(=O)OCc2cccc(COc3ccccc3)c2)C1(C)C` (stereo not drawn) the logP was 6.06.

`NC(Cc1ccc(O)cc1)C(=O)NCC(=O)NCC(=O)O` (stereo not drawn) (H-[ξY]-Gly-Gly-OH) showed a logP of -3.51.

`COC(=O)c1c(Oc2nc(OC)cc(OC)n2)cccc1C(C)=NOCCCl` gave a logP of 3.23.

`C=CCNc1ncnc2nc[nH]c12` gave a logP of 1.09.

Work on `O=Cc1ccc(Cl)cc1O` yielded a logP of 2.49.

With `CCOC(=O)C(C)(Cc1ccccc1)S(=O)(=O)c1ccc([N+](=O)[O-])cc1` (stereo not drawn) the logP was 3.4.

Compound `O=C1C=C(N2CCCCC2)C(=O)N1c1ccc(F)cc1` has a logP of 2.6.

For `COc1ccc(C2Cc3cc(OCc4ccccc4)ccc3N(CCN(C)C)C(=O)C2OC(C)=O)cc1` (stereo not drawn), the logP was 5.4.

Compound `CC(C)C(NC(=O)C(N)Cc1ccccc1)C(=O)NC(Cc1ccc(O)cc1)C(=O)NC(Cc1ccccc1)C(=O)O` (stereo not drawn) (H-FVYF-OH; configuration not given here) has a logP of -0.32.

In the case of `CCc1cccc(COC(=O)C2C(C=C(C)C(=O)OC)C2(C)C)c1` (stereo not drawn), the logP is reported as 5.42.

`COC(=O)C1=C(C)NC(C)=C(C(=O)OCC=Cc2ccccc2)C1c1cccc([N+](=O)[O-])c1` (stereo not drawn) showed a logP of 5.69.

With `CN(C)CCCCc1ccccc1` the logP was 3.15.

`COc1ccc2c(c1)CCN(C)C2` showed a logP of 2.32.

`CC1CC2OC(=O)C(C)C2C(O)C2(C)C(=O)C=CC12` (stereo not drawn) gave a logP of 0.53.

Work on `CC1(C(Cl)Cl)C2C(Cl)C(Cl)C1(C(Cl)Cl)C(Cl)C2Cl` (stereo not drawn) yielded a logP of 5.52.

Compound `CCOCCCNc1ncnc2c1ncn2C1OC(CO)C(O)C1O` (stereo not drawn) has a logP of 0.22.

Work on `CCON=C(CC)C1=C(O)CC(c2cccc(Oc3ncc(C(F)(F)F)cc3F)c2)CC1=O` (stereo not drawn) yielded a logP of 4.63.

In the case of `C=CCN(N=O)C(=O)N(CCCCC(NC(C)=O)C(=O)NCc1ccccc1)Cc1ccccc1` (stereo not drawn), the logP is reported as 2.7.

With `Clc1ccc(Cl)c2c1oc1c(Cl)ccc(Cl)c12` the logP was 5.6.

In the case of `Cc1ccccc1Nc1ccncc1S(=O)(=O)NC(=NC#N)NC(C)C`, the logP is reported as 1.67.

Work on `CCOC(=O)c1c(O)c2ccc(Cl)cc2[nH]c1=O` yielded a logP of 2.6.

Compound `COC(=O)C(C)NP(=O)(OCC1C=CC(n2cc(C)c(=O)[nH]c2=O)O1)Oc1ccc(OC)cc1` (stereo not drawn) has a logP of 1.09.
